Experimental data taken from ChEMBL document CHEMBL1201862, “PubChem BioAssay data set” (2004).
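A five-concentration, 48-hour dose response in 96-well plates underlies each endpoint, interpolated linearly between surrounding concentrations. GI50 is the concentration that inhibits growth by half.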 Calls of active or inactive are those of the source. Cut-off read from the data, not from the text of the source: active = GI50 up to about 1.1 µM and inactive = higher.

Columns and labels:
Assay in all cases: NCI-60 cell line screen, 48 h
A498 = tested on: A498
ACHN = tested on: ACHN
COLO 205 = tested on: COLO 205
DU-145 = tested on: DU-145
HCC 2998 = tested on: HCC 2998
HCT-116 = tested on: HCT-116
HOP-62 = tested on: HOP-62
Hs-578T = tested on: Hs-578T
IGROV-1 = tested on: IGROV-1
MDA-MB-231 = tested on: MDA-MB-231
MDA-MB-435 = tested on: MDA-MB-435
Malme-3M = tested on: Malme-3M
NCI-H460 = tested on: NCI-H460
NCI-H522 = tested on: NCI-H522
OVCAR-4 = tested on: OVCAR-4
PC-3 = tested on: PC-3
SK-MEL-28 = tested on: SK-MEL-28
SK-MEL-5 = tested on: SK-MEL-5
SK-OV-3 = tested on: SK-OV-3
UACC-257 = tested on: UACC-257

Measured: GI50

O=C1C=CC(=O)c2c1ccc1c3ccccc3n(-c3ccccc3[N+](=O)[O-])c21
inactive: A498 20.7 µM | ACHN 1.71 µM | COLO 205 2.07 µM | DU-145 4.68 µM | HCC 2998 3.42 µM | HCT-116 2.79 µM | HOP-62 18.6 µM | Hs-578T 10.7 µM | IGROV-1 1.94 µM | MDA-MB-231 2.76 µM | MDA-MB-435 2.26 µM | Malme-3M 2.17 µM | NCI-H460 9.82 µM | NCI-H522 1.63 µM | OVCAR-4 2.59 µM | PC-3 3.65 µM | SK-MEL-28 8.55 µM | SK-MEL-5 6.89 µM | SK-OV-3 17 µM | UACC-257 3.56 µM

CC(=O)Nc1cc([As](=O)(O)O)ccc1O [ACETARSONE]
inactive: A498 > 100 µM | ACHN > 100 µM | COLO 205 > 100 µM | DU-145 > 100 µM | HCC 2998 > 100 µM | HCT-116 > 100 µM | HOP-62 > 100 µM | Hs-578T > 100 µM | IGROV-1 > 100 µM | MDA-MB-231 > 100 µM | MDA-MB-435 > 100 µM | Malme-3M > 100 µM | NCI-H460 > 100 µM | NCI-H522 > 100 µM | OVCAR-4 > 100 µM | PC-3 > 100 µM | SK-MEL-28 > 100 µM | SK-MEL-5 > 100 µM | SK-OV-3 > 100 µM | UACC-257 > 100 µM

O=c1c2sc3nc(NCCN4CCCCC4)ncc3c2ncn1-c1ccccc1
inactive: A498 > 100 µM | ACHN 42 µM | COLO 205 41.3 µM | DU-145 > 100 µM | HCC 2998 > 100 µM | HCT-116 33.1 µM | HOP-62 42.1 µM | Hs-578T 36.4 µM | IGROV-1 40 µM | MDA-MB-231 > 100 µM | MDA-MB-435 72.6 µM | Malme-3M 20.1 µM | NCI-H460 55.6 µM | NCI-H522 41 µM | OVCAR-4 > 100 µM | PC-3 59.3 µM | SK-MEL-28 55.2 µM | SK-MEL-5 19.2 µM | SK-OV-3 > 100 µM | UACC-257 31.3 µM

C=C(C)[C@H]1[C@@H]2OC(=O)[C@H]1[C@]1(O)C[C@H]3OC34C(=O)O[C@H]2[C@@]41C.CC(C)(O)[C@H]1[C@@H]2OC(=O)[C@H]1[C@]1(O)C[C@H]3OC34C(=O)O[C@H]2[C@@]41C (stereo not given in full)
inactive: A498 > 100 µM | ACHN > 100 µM | COLO 205 > 100 µM | DU-145 > 100 µM | HCC 2998 > 100 µM | HCT-116 > 100 µM | HOP-62 > 100 µM | Hs-578T > 100 µM | IGROV-1 > 100 µM | MDA-MB-231 > 100 µM | MDA-MB-435 > 100 µM | Malme-3M > 100 µM | NCI-H460 > 100 µM | NCI-H522 > 100 µM | OVCAR-4 > 100 µM | PC-3 > 100 µM | SK-MEL-28 > 100 µM | SK-MEL-5 > 100 µM | SK-OV-3 > 100 µM | UACC-257 > 100 µM

COC1(OC)CCCc2c1no[n+]2[O-]
inactive: A498 > 100 µM | ACHN > 100 µM | COLO 205 > 100 µM | DU-145 > 100 µM | HCC 2998 > 100 µM | HCT-116 > 100 µM | HOP-62 > 100 µM | Hs-578T > 100 µM | IGROV-1 > 100 µM | MDA-MB-231 > 100 µM | MDA-MB-435 > 100 µM | Malme-3M > 100 µM | NCI-H460 > 100 µM | NCI-H522 > 100 µM | OVCAR-4 > 100 µM | PC-3 > 100 µM | SK-MEL-28 > 100 µM | SK-MEL-5 > 100 µM | SK-OV-3 > 100 µM | UACC-257 > 100 µM

O=C(Nc1cnc(O)nc1O)Oc1ccccc1
inactive: A498 > 100 µM | ACHN > 100 µM | COLO 205 > 100 µM | DU-145 > 100 µM | HCC 2998 > 100 µM | HCT-116 > 100 µM | HOP-62 > 100 µM | Hs-578T > 100 µM | IGROV-1 > 100 µM | MDA-MB-231 > 100 µM | MDA-MB-435 > 100 µM | Malme-3M > 100 µM | NCI-H460 > 100 µM | NCI-H522 > 100 µM | OVCAR-4 > 100 µM | PC-3 > 100 µM | SK-MEL-28 > 100 µM | SK-MEL-5 > 100 µM | SK-OV-3 > 100 µM | UACC-257 > 100 µM

Nc1nc(O)c2nc3c(nc2n1)C(=O)N(c1ccc(C(=O)O)cc1)C3
inactive: A498 > 100 µM | ACHN > 100 µM | COLO 205 > 100 µM | DU-145 > 100 µM | HCC 2998 > 100 µM | HCT-116 > 100 µM | HOP-62 29.4 µM | Hs-578T > 100 µM | IGROV-1 > 100 µM | MDA-MB-231 > 100 µM | MDA-MB-435 > 100 µM | Malme-3M > 100 µM | NCI-H460 > 100 µM | NCI-H522 > 100 µM | OVCAR-4 > 100 µM | PC-3 > 100 µM | SK-MEL-28 > 100 µM | SK-MEL-5 > 100 µM | SK-OV-3 > 100 µM | UACC-257 > 100 µM
